Data set [1] concerns mechanical allodynia after chronic constriction injury (CCI) to the sciatic nerve. Briefly: Repeated administration, mechanical allodynia (Dynamic Plantar Aesthesiometer) in CCI rats. The data set is classed as in vivo, rat. Particulars: for difference between the pain relieving values before and after treatment, Mechanical Allodynia: day 14 minus day 7. The procedure: (§1) Painful neuropathy was induced in male Wistar rats weighing 200-220 g (Harlan, Italy). Animals were anaesthetized with sodium pentobarbital (60 mg kg^−1 i.p.) and submitted to a surgical procedure to induce neuropathic pain according to Bennet & Xie (1988).
(§2) This procedure was a chronic constriction injury (CCI) to the sciatic nerve, this was achieved by exposing the common sciatic nerve at the level of the mid thigh and, proximal to the sciatic nerves trifurcation, four ligatures were loosely tied around it with about 1 mm spacing so that the epineural circulation was preserved.
(§3) Sham animals (sciatic exposure without ligation) were used as controls.
(§4) The compounds tested were a cannabinoid-containing plant extract which contained a ratio of CBD:THC of approximately 24:1. From Table 1 this could also be described as a “CBD-containing plant extract”. The extract comprised CBD at a concentration of 10 mg/kg and THC at a concentration of 0.42 mg/kg. Pure cannabinoids CBD (at a concentration of 10 mg/kg) and THC (at a concentration of 0.42 mg/kg) were also used as test articles for comparison to the cannabinoid-containing plant extract.
(§5) The test compounds were dissolved in a 1:1:18 mixture of ethanol, cremophor and saline.
(§6) In the repeated administration study the rats received the test compounds or the vehicle orally once a day for seven days, starting from the seventh day after the surgical procedure.
(§7) The animals pain response was monitored (i) before surgery, (ii) on day 7 (before starting the treatment) and (iii) on day 14 (24 hours after the last administration of the test article).
(§8) Mechanical allodynia was assessed using the Dynamic Plantar Aesthesiometer (Ugo Basile, Varese, Italy). Particularly, animals were placed in a test cage with a wire mesh floor, and the tip of von Frey-type filament was applied to the middle of the plantar surface of the hind paw. The filament exerted an increasing force starting below the threshold of detection and increasing until the animal removed its paw. Withdrawal threshold was expressed as tolerance level in g.
Table 5 below details the data produced by the repeated administration of the vehicle to the sham animals or administration of vehicle or test article to animals with CCI. Test article or vehicle was administered 7 days after the chronic constriction injury was applied and was administered once a day for a further seven days.

For data set [2], the system named is neuropathic pain model of chronic constriction injury of the rat sciatic nerve. Particulars: purified compound; thermal and mechanical hyperalgesia and mechanical allodynia; cited from earlier work.
The test system of data set [3] is mechanical allodynia after chronic constriction injury (CCI) to the sciatic nerve. Briefly: Acute administration, mechanical allodynia (Dynamic Plantar Aesthesiometer) in CCI rats. The class given is in vivo, rat. Particulars: for Withdrawal threshold: CCI rats 14 days after injury, THC 0.42 mg/kg, CBD 10 mg/kg; for mean pain relieving effect of the test article when compared to the vehicle as a percentage, Mechanical Allodynia: mean over the test period. The procedure:
as §1, §2, §3, §4, §5
(§9) The acute administration of compounds was evaluated in rats treated with vehicle for one week and subsequently provided with the test article prior to the behavioural evaluations. The behavioural evaluations were performed at different times (between 30 min to 24 hours).
as §8
Table 3 below details the data produced by the acute administration of the vehicle to the sham animals or administration of vehicle or test article to animals with CCI, 14 days after the injury occurred.

Data set [4] concerns thermal hyperalgesia after chronic constriction injury (CCI) to the sciatic nerve. Briefly: Repeated administration, thermal hyperalgesia (Hargreaves plantar test) in CCI rats. The class given is in vivo, rat. Particulars: for difference between the pain relieving values before and after treatment, Thermal Hyperalgesia: day 14 minus day 7. The procedure: as §1, §2, §3, §4, §5, §6, §7
(§10) Thermal hyperalgesia was tested according to the Hargreaves procedure (Hargreaves et al., 1988) using the plantar test (Ugo Basile, Varese, Italy).
(§11) Briefly, animals were placed in a clear plexiglass box and allowed to acclimatise. A constant intensity radiant heat source was aimed at the midplantar area of the hind paw. The time, in seconds, from initial heat source activation until paw withdrawal was recorded.
Table 4 below details the data produced by the repeated administration of the vehicle to the sham animals or administration of vehicle or test article to animals with CCI. Test article or vehicle was administered 7 days after the chronic constriction injury was applied and was administered once a day for a further seven days.

Data set [5] shares this test system. Briefly: Acute administration, thermal hyperalgesia (Hargreaves plantar test) in CCI rats. The class given is in vivo, rat. Particulars: for Withdrawal latency: CCI rats 14 days after injury, THC 0.42 mg/kg, CBD 10 mg/kg; for mean pain relieving effect of the test article when compared to the vehicle as a percentage, Thermal Hyperalgesia: mean over the test period. As to the method: as §1, §2, §3, §4, §5, §9, §10, §11
Table 2 below details the data produced by the acute administration of the vehicle to the sham animals or administration of vehicle or test article to animals with CCI, 14 days after the injury occurred.

The test system of data set [6] is patients taking carbamezepine. Particulars: cited from earlier work.
Where [7] appears, read: day 0 (prior to CCI), baseline of the treatment group.
[8] abbreviates: day 7 after CCI (before drug treatment), baseline of the treatment group.
[9] abbreviates: day 14 after CCI (after 7 days of drug treatment, orally once a day; THC 0.42 mg/kg, CBD 10 mg/kg).
The mark [10] stands for this setting: repeated administration, 7 days.

For the molecule `C=C(C)[C@@H]1CCC(C)=C[C@H]1c1c(O)cc(CCCCC)cc1O` [CBD, cannabidiol], the Withdrawal threshold in data set [1] (setting [7]) is 34 g; in data set [1] (setting [8]) it was 15 g; in data set [1] (setting [9]), 19 g; in data set [3] (30 min after administration) it was 10 g; in data set [3] (60 min after administration), 10 g; in data set [3] (90 min after administration), 11 g. The Withdrawal threshold in data set [3] (120 min after administration), in data set [3] (150 min after administration) and in data set [3] (180 min after administration) was 10 g each time. Also, in data set [1] (repeated administration), the “difference between the pain relieving values before and after treatment, Mechanical Allodynia” value was determined as 4 g. In addition, in data set [2], the “relief of neuropathic pain (in words)” value was “can partially relieve neuropathic pain”. In addition, the “pain relieving effect (in words), mechanical allodynia” value in data set [3] is reported as “did not produce any pain relieving effects”. The “mean pain relieving effect of the test article when compared to the vehicle as a percentage, Mechanical Allodynia” value in data set [3] is reported as −13%. Moreover, the Withdrawal latency in data set [4] (setting [7]) turned out to be 10.4 s; in data set [4] (setting [8]), 5.5 s; in data set [4] (setting [9]), 8.7 s; in data set [5] (30 min after administration), 5.4 s; in data set [5] (60 min after administration) it was 5.4 s; in data set [5] (90 min after administration) it was 5.4 s. Further, the Withdrawal latency in data set [5] (120 min after administration) is 5.3 s; in data set [5] (150 min after administration), 5.4 s; in data set [5] (180 min after administration) it was 5.3 s. Besides, the “difference between the pain relieving values before and after treatment, Thermal Hyperalgesia” value in data set [4] (repeated administration) was found to be 3.2 s. Also, in data set [5], the “pain relieving effect (in words), thermal hyperalgesia” value is “did not produce any pain relieving effects”. For the same molecule, the “mean pain relieving effect of the test article when compared to the vehicle as a percentage, Thermal Hyperalgesia” value in data set [5] is −4%.

As to `CCCCCc1cc(O)c2c(c1)OC(C)(C)[C@@H]1CCC(C)=C[C@@H]21` [THC, delta-9-tetrahydrocannabinol], the Withdrawal threshold in data set [1] (setting [7]) was found to be 31 g; in data set [1] (setting [8]), 12 g; in data set [1] (setting [9]), 10 g; in data set [3] (30 min after administration), 12 g; in data set [3] (60 min after administration), 9 g; in data set [3] (90 min after administration), 15 g. In addition, the Withdrawal threshold came out at 21 g in data set [3] (120 min after administration), 13 g in data set [3] (150 min after administration) and 10 g in data set [3] (180 min after administration). Further, the “pain relieving effect (in words), mechanical allodynia” value in data set [1] (setting [10]) is on record as “did not result in any pain relieving effect”. The “difference between the pain relieving values before and after treatment, Mechanical Allodynia” value in data set [1] (repeated administration) is -2 g. For the same molecule, the “mean pain relieving effect of the test article when compared to the vehicle as a percentage, Mechanical Allodynia” value in data set [3] was determined as 14%. The molecule further displayed a peak withdrawal threshold in data set [3] (peak after 120 minutes) of 20 g. The Withdrawal latency in data set [4] (setting [7]) stood at 9.8 s; in data set [4] (setting [8]), 5.8 s; in data set [4] (setting [9]), 4.8 s; in data set [5] (30 min after administration), 11.0 s; in data set [5] (60 min after administration), 10.2 s; in data set [5] (90 min after administration), 9.8 s. Besides, the Withdrawal latency in data set [5] (120 min after administration) was found to be 6.0 s; in data set [5] (150 min after administration), 5.0 s; in data set [5] (180 min after administration), 5.3 s. Further, the entries for the “pain relieving effect (in words), thermal hyperalgesia” value in data set [4] (setting [10]) and in data set [5] were “did not result in any pain relieving effect” and “increased the withdrawal latency over that of the vehicle treated animals”, respectively. In data set [4] (repeated administration), the “difference between the pain relieving values before and after treatment, Thermal Hyperalgesia” value is -1.0 s. Besides, in data set [5], the “mean pain relieving effect of the test article when compared to the vehicle as a percentage, Thermal Hyperalgesia” value is 47%.

Regarding `NC(=O)N1c2ccccc2C=Cc2ccccc21` [carbamezepine], the “increase in the risk of blood dyscrasias” value in data set [6] (post-marketing studies, patients taking carbamezepine) was “five- to eight-fold increase”. Moreover, the “patients with a 25% decrease in their white blood cell count” value in data set [6] (usually reverses within the first 4 months of therapy) is 7%.
